Assay results from patent US11541032B2, “Composition containing sumo inhibitor and application” (CHINA PHARMACEUTICAL UNIVERSITY, priority 2018, dated 2023).

Experiments:
Format in all cases: cell-based, Rat
[1] = tested on: activated HSCs (HSC-T6 cells); assay: RT-PCR of fibrotic-related gene Acta2 mRNA in activated HSCs; details: after administration of SP
Method: (§1) HSC-T6 cells, seeded and cultured in a proper density, were treated with TGF-β([…]) or OCA (5 μM) or GW40064 (5 μM) or WAY-362450 (5 μM) for 12 h before collection.
(§2) RNA solutions and kit components were prepared into a system with a total volume of 20 μl according to a system proportion required in the specification, and a program temperature was set for reverse transcription.
(§3) Stage 2: PCR reaction at 95° C. for 15 sec; for example, at 60° C. for 30 sec for 40 Cycles; and at 72° C. for 30 sec.
(§4) Specific methods were the same as those in section 2.1 in Embodiment 1.
(§5) Specific methods were the same as those in section 2.2 in Embodiment 1.

[2] = tested on: FXR signaling pathway; assay: RT-PCR of FXR target gene Shp mRNA in quiescent and TGF-β-activated HSC-T6 cells; details: for mRNA expression of Shp: activated HSCs, in the presence of SUMO inhibitor SP; for mRNA level of Shp: activated state (TGF-β1 incubation) HSC-T6 cells; for mRNA level of Shp / mRNA level of Shp, an FXR target gene: agonist 5 μM, 12 h; for mRNA level of Shp, an FXR target gene: quiescent HSC-T6 cells
Method: as §1
1) After the cells were cleaned by PBS, 800 μl of a Trizol reagent was added. After repeated blowing by a pipette, the cells were transferred into an EP tube to be subjected to still standing for 5 min at the room temperature.
2) 160 μl of chloroform was added, and violent oscillation was performed for 15 sec. After still standing for 5 min at the room temperature, 12000 g centrifugation was performed for 15 min. The sample was divided into three layers including a bottom layer being a yellow organic phase, an upper layer being a colorless water phase, and a middle layer.
3) 300 μl of the upper layer water phase was carefully transferred into a new tube. 300 μl of isopropanol was added. After uniform mixing through reversing, still standing was performed for 10 min at the room temperature. Then, 12000 g centrifugation was performed for 10 min. Supernatant was abandoned.
4) RNA precipitates were washed by 1.0 ml of precooled 75% ethanol. Then, 12000 g centrifugation was performed for 5 min. Supernatant was abandoned to obtain total RNA. Redissolution was performed by 10 μl of DEPC water. After quantification, dilution was performed to 0.5 μg/μl.
as §2
Stage 1: reverse transcription at 37° C. for 15 min.
Stage 2: denaturation at 85° C. for 5 s.
Stage 1: initial denaturation at 95° C. for 1 min.
as §3
Stage 3: dissociation curve analysis at 65 to 95° C., 0.5° C./5s.
as §4, §5

[3] = tested on: FXR proteins; assay: SUMOylation ELISA of FXR proteins in activated HSCs
Method: as §1
After cell nuclear proteins were extracted according to specification requirements of an ELISA detection kit, primary antibodies and nuclear proteins of a cell sample were incubated for 60 min at the room temperature in a plate hole. SUMO specific detection antibodies were then supplemented and added according to the specification requirements. A color sensitizer was further added for color development. Then, absorbance at 655 nm was fast read. Relative quantitative analysis was performed.
as §4
Specific methods were the same as those in section 2.3 in Embodiment 1.

| Molecule | expression of fibrotic-related gene Acta2 [1] | mRNA expression of Shp [2] | mRNA level of Shp [2] | mRNA level of Shp, an FXR target gene [2] | SUMOylation level of FXR proteins [3] |
| --- | --- | --- | --- | --- | --- |
| CC(C)c1onc(-c2c(Cl)cccc2Cl)c1COc1ccc(/C=C/c2cccc(C(=O)O)c2)c(Cl)c1 [GW4064] | significantly reduced | significantly up-regulated | none of the FXR agonists OCA, GW4064 and WAY-362450 could significantly up-regulate | could significantly up-regulate | – |
| ginkgolic acid [GA] | – | – | – | – | could significantly reduce |
| CC(C)OC(=O)C1=CN(C(=O)c2ccc(F)c(F)c2)CC(C)(C)c2c1[nH]c1ccccc21 [WAY-362450] | significantly reduced | significantly up-regulated | none of the FXR agonists OCA, GW4064 and WAY-362450 could significantly up-regulate | could significantly up-regulate | – |
| CN[C@@H]1[C@H](O)[C@H](NC)[C@H]2O[C@@]3(O)C(=O)C[C@@H](C)O[C@H]3O[C@@H]2[C@H]1O [SP, spectinomycin] | – | – | – | – | could significantly reduce |
